Assay results as given in patent US12052991B2, “Substituted pyridinyloxybenzenes and salts thereof and use thereof as herbicidal agents” (Bayer Aktiengesellschaft, priority 2018, dated 2024).

Experiments:
Format in all cases: in vivo
[1] = tested on: Abutilon theophrasti (ABUTH); assay: Herbicidal pre-emergence action, test C (Table C5); conditions: visual scoring after about 3 weeks, 100% = plants have died, 0% = like control plants
In short: (§1)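 Compounds formulated as WP or EC were sprayed onto soil covering freshly sown weed seeds at 600 L/ha water with 0.5% additive, at 1280 or 320 g/ha. Pots were kept in a greenhouse. After about 3 weeks, damage was scored visually as % versus untreated controls (100% = plants dead).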

Stellaria media (STEME) [2] = assay: Herbicidal post-emergence action (Table B8); conditions: visual rating about 3 weeks after treatment, 100% = plants have died, 0% = like control plants
In short: (§2)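 Greenhouse pot-grown weeds in sandy loam, sprayed at the one-leaf stage (2–3 weeks post-sowing) with WP or EC formulations plus 0.5% additive at 600 l/ha water, at 1280 or 320 g/ha. Visual % activity versus untreated controls rated about 3 weeks later (100% = dead).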

[3] = tested on: harmful plants ABUTH, AMARE, ECHCG, LOLRI, MATIN, POAAN, SETVI, STEME, ALOMY, DIGSA, KCHSC and VERPE; assay: Herbicidal post-emergence action, summary of Tables B1-B12; conditions: application rate of 1280 or 320 g of active ingredient per hectare; summary in words
In short: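 Greenhouse weeds in sandy loam treated post-emergence at the one-leaf stage, 2–3 weeks after sowing, with WP or EC formulations sprayed with 0.5% additive at 600 L/ha water, 1280 or 320 g/ha. Damage rated visually after about 3 weeks versus untreated controls (0% = like control, 100% = dead).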

Bassia scoparia (KCHSC) [4] = assay: Herbicidal post-emergence action (Table B11); conditions: visual rating about 3 weeks after treatment, 100% = plants have died, 0% = like control plants
In short: as §2

[5] = tested on: Abutilon theophrasti (ABUTH); assay: Herbicidal post-emergence action (Table B5); conditions: rated visually after about 3 weeks, 100% = plants have died, 0% = like control plants
In short: as §2

[6] = tested on: Amaranthus retroflexus (AMARE); assay: Herbicidal post-emergence action (Table B6); conditions: visual rating about 3 weeks after treatment, 100% = plants have died, 0% = like control plants
In short: as §2

[7] = tested on: Amaranthus retroflexus (AMARE); assay: Herbicidal pre-emergence action, test C (Table C6); conditions: visual scoring after about 3 weeks, 100% = plants have died, 0% = like control plants
In short: as §1

Poa annua (POAAN) [8] = assay: Herbicidal pre-emergence action, test C (Table C3); conditions: visual scoring after about 3 weeks, 100% = plants have died, 0% = like control plants
In short: as §1

Veronica persica (VERPE) [9] = assay: Herbicidal post-emergence action (Table B12); conditions: visual rating about 3 weeks after treatment, 100% = plants have died, 0% = like control plants
In short: as §2

Veronica persica (VERPE) [10] = assay: Herbicidal pre-emergence action, test C (Table C12); conditions: visual scoring vs untreated controls
In short: as §1

[11] = tested on: Digitaria sanguinalis (DIGSA); assay: Herbicidal pre-emergence action, test C (Table C10); conditions: visual scoring after about 3 weeks, 100% = plants have died, 0% = like control plants
In short: as §1

Poa annua (POAAN) [12] = assay: Herbicidal post-emergence action (Table B3); conditions: rated visually after about 3 weeks, 100% = plants have died, 0% = like control plants
In short: as §2

Stellaria media (STEME) [13] = assay: Herbicidal pre-emergence action, test C (Table C8); conditions: visual scoring after about 3 weeks, 100% = plants have died, 0% = like control plants
In short: as §1

Bassia scoparia (KCHSC) [14] = assay: Herbicidal pre-emergence action, test C (Table C11); conditions: dosage 1280 g/ha, visual scoring vs untreated controls
Source text: (§3) Seeds of mono- and dicotyledonous weed plants were placed in plastic pots in sandy loam soil (doubly sown with one species each of mono- or dicotyledonous weed plants per pot) and covered with soil. The compounds of the invention, formulated in the form of wettable powders (WP) or as emulsion concentrates (EC), were then applied onto the surface of the covering soil as aqueous suspension or emulsion with addition of 0.5% additive at a water application rate of 600 liters per hectare (converted). After the treatment, the pots were placed in a greenhouse and kept under good growth conditions for the test plants. After about 3 weeks, the effect of the preparations was scored visually in comparison with untreated controls as percentages. For example, 100% activity=the plants have died, 0% activity=like control plants. Tables C1 to C12 below show the effects of selected compounds of the general formula (I) according to Table 1 on various harmful plants and an application rate corresponding to 1280 or 320 g/ha, which were obtained by the experimental procedure mentioned above.

Setaria viridis (SETVI) = assay: Herbicidal pre-emergence action, test C (Table C4); conditions: visual scoring after about 3 weeks, 100% = plants have died, 0% = like control plants
In short: as §1

[15] = tested on: harmful plants ABUTH, AMARE, ECHCG, LOLRI, MATIN, POAAN, SETVI, STEME, ALOMY, DIGSA, KCHSC and VERPE; assay: Herbicidal pre-emergence action (test C), summary of Tables C1-C12; conditions: application rate of 1280 or 320 g of active ingredient per hectare; summary in words
In short: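 Pre-emergence pot test in sandy loam: WP or EC formulations were sprayed onto the covering soil with 0.5% additive at 600 L/ha water, at 1280 or 320 g/ha. Plants were kept in the greenhouse, and activity was rated visually about 3 weeks later as % versus untreated controls (100% = dead).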

[16] = tested on: Echinochloa crus-galli (ECHCG); assay: Herbicidal pre-emergence action, test C (Table C1); conditions: dosage 1280 g/ha; visual scoring after about 3 weeks; 100% = plants have died, 0% = like control plants
Source text: as §3

[17] = tested on: Matricaria inodora (MATIN); assay: Herbicidal pre-emergence action, test C (Table C7); conditions: visual scoring after about 3 weeks, 100% = plants have died, 0% = like control plants
In short: as §1

Lolium rigidum (LOLRI) = assay: Herbicidal pre-emergence action, test C (Table C2); conditions: dosage 1280 g/ha; visual scoring after about 3 weeks; 100% = plants have died, 0% = like control plants
Source text: as §3

[18] = tested on: Echinochloa crus-galli (ECHCG); assay: Herbicidal post-emergence action (Table B1); conditions: 1280 g/ha; rated visually after about 3 weeks; 100% = plants have died, 0% = like control plants
Method: (§4) Seeds of mono- and dicotyledonous weed plants were placed in plastic pots in sandy loam soil (doubly sown with in each case one species of mono- or dicotyledonous weed plants per pot), covered with soil and cultivated in a greenhouse under controlled growth conditions. 2 to 3 weeks after sowing, the test plants were treated at the one-leaf stage. The compounds of the invention, formulated in the form of wettable powders (WP) or as emulsion concentrates (EC), were applied onto the green parts of the plants as aqueous suspension or emulsion with addition of 0.5% additive at a water application rate of 600 liters per hectare (converted). After the test plants had been kept in the greenhouse under optimum growth conditions for about 3 weeks, the activity of the preparations was rated visually in comparison to untreated controls. For example, 100% activity=the plants have died, 0% activity=like control plants. Tables B1 to B12 below show the effects of selected compounds of the general formula (I) according to Table 1 on various harmful plants and an application rate corresponding to 1280 or 320 g/ha, which were obtained by the experimental procedure mentioned above.

[19] = tested on: Alopecurus myosuroides (ALOMY); assay: Herbicidal post-emergence action (Table B9); conditions: rated visually after about 3 weeks, 100% = plants have died, 0% = like control plants
Method: as §4

[20] = tested on: Alopecurus myosuroides (ALOMY); assay: Herbicidal pre-emergence action, test C (Table C9); conditions: visual scoring after about 3 weeks, 100% = plants have died, 0% = like control plants
Source text: as §3

[21] = tested on: Digitaria sanguinalis (DIGSA); assay: Herbicidal post-emergence action (Table B10); conditions: visual rating about 3 weeks after treatment, 100% = plants have died, 0% = like control plants
Method: as §4

| Structure (SMILES) | Post-emergence action against Stellaria media (STEME) (Stellaria media (STEME) [2]; dosage 320 g/ha) | Post-emergence action against Stellaria media (STEME) (Stellaria media (STEME) [2]; dosage 1280 g/ha) | herbicidal activity against the harmful plants of Tables B1-B12 in post-emergence treatment [3] | Post-emergence action against Bassia scoparia (KCHSC) (Bassia scoparia (KCHSC) [4]; dosage 1280 g/ha) | Post-emergence action against Abutilon theophrasti (ABUTH) ([5]; 320 g/ha) | Post-emergence action against Abutilon theophrasti (ABUTH) ([5]; 1280 g/ha) | Post-emergence action against Amaranthus retroflexus (AMARE) ([6]; dosage 1280 g/ha) | Pre-emergence action against Amaranthus retroflexus (AMARE) ([7]; dosage 320 g/ha) | Pre-emergence action against Amaranthus retroflexus (AMARE) ([7]; dosage 1280 g/ha) | Pre-emergence action against Poa annua (POAAN) (Poa annua (POAAN) [8]; dosage 320 g/ha) | Pre-emergence action against Poa annua (POAAN) (Poa annua (POAAN) [8]; dosage 1280 g/ha) | Post-emergence action against Veronica persica (VERPE) (Veronica persica (VERPE) [9]; dosage 320 g/ha) | Post-emergence action against Veronica persica (VERPE) (Veronica persica (VERPE) [9]; dosage 1280 g/ha) | Pre-emergence action against Veronica persica (VERPE) (Veronica persica (VERPE) [10]; dosage 1280 g/ha) | Pre-emergence action against Digitaria sanguinalis (DIGSA) ([11]; dosage 1280 g/ha) | Post-emergence action against Poa annua (POAAN) (Poa annua (POAAN) [12]; 320 g/ha) | Post-emergence action against Poa annua (POAAN) (Poa annua (POAAN) [12]; 1280 g/ha) | Pre-emergence action against Stellaria media (STEME) (Stellaria media (STEME) [13]; dosage 1280 g/ha) | Pre-emergence action against Setaria viridis (SETVI) (Setaria viridis (SETVI); dosage 1280 g/ha) | herbicidal activity against the harmful plants of Tables C1-C12 in pre-emergence treatment [15] | other results |
| --- | --- | --- | --- | --- | --- | --- | --- | --- | --- | --- | --- | --- | --- | --- | --- | --- | --- | --- | --- | --- | --- |
| Cn1nc(-c2c(F)cccc2Oc2ncc(Cl)cc2F)cc1C(F)F [Example 1-61] | 100% | 100% | very good herbicidal activity | 100% | 100% | 100% | 100% | 100% | 100% | 90% | 100% | 100% | 100% | 100% | 100% | 100% | 100% | 100% | 90% | very good herbicidal activity | Pre-emergence action against Abutilon theophrasti (ABUTH) ([1]; dosage 1280 g/ha): 100%; Post-emergence action against Bassia scoparia (KCHSC) (Bassia scoparia (KCHSC) [4]; dosage 320 g/ha): 100%; Post-emergence action against Amaranthus retroflexus (AMARE) ([6]; dosage 320 g/ha): 100%; Pre-emergence action against Bassia scoparia (KCHSC) (Bassia scoparia (KCHSC) [14]): 100% |
| Fc1cccnc1Oc1ccccc1-c1cc(C(F)F)no1 [Example 1-47] | 100% | 100% | very good herbicidal activity | 90% | 90% | 100% | 100% | 100% | 100% | 100% | 100% | 100% | 100% | 100% | 90% | 100% | 100% | 100% | 90% | very good herbicidal activity | Post-emergence action against Bassia scoparia (KCHSC) (Bassia scoparia (KCHSC) [4]; dosage 320 g/ha): 90%; Post-emergence action against Amaranthus retroflexus (AMARE) ([6]; dosage 320 g/ha): 90%; Pre-emergence action against Veronica persica (VERPE) (Veronica persica (VERPE) [10]; dosage 320 g/ha): 90%; Pre-emergence action against Stellaria media (STEME) (Stellaria media (STEME) [13]; dosage 320 g/ha): 100%; Pre-emergence action against Bassia scoparia (KCHSC) (Bassia scoparia (KCHSC) [14]): 90% |
| Cc1cccc(Oc2ncc(Cl)cc2F)c1-c1cc(C(F)F)on1 [Example 1-10] | 100% | 100% | very good herbicidal activity | 100% | 90% | 100% | 100% | 100% | 100% | 100% | 100% | 100% | 100% | 100% | 100% | 100% | 100% | 100% | 100% | very good herbicidal activity | Pre-emergence action against Abutilon theophrasti (ABUTH) ([1]; dosage 320 g/ha): 100%; Pre-emergence action against Abutilon theophrasti (ABUTH) ([1]; dosage 1280 g/ha): 100%; Pre-emergence action against Echinochloa crus-galli (ECHCG) [16]: 90%; Pre-emergence action against Matricaria inodora (MATIN) ([17]; dosage 320 g/ha): 100%; Pre-emergence action against Matricaria inodora (MATIN) ([17]; dosage 1280 g/ha): 100%; Pre-emergence action against Lolium rigidum (LOLRI) (Lolium rigidum (LOLRI)): 90%; Post-emergence action against Echinochloa crus-galli (ECHCG) [18]: 100%; Post-emergence action against Alopecurus myosuroides (ALOMY) ([19]; 320 g/ha): 100%; Post-emergence action against Alopecurus myosuroides (ALOMY) ([19]; 1280 g/ha): 100%; Pre-emergence action against Alopecurus myosuroides (ALOMY) ([20]; dosage 320 g/ha): 100%; Pre-emergence action against Alopecurus myosuroides (ALOMY) ([20]; dosage 1280 g/ha): 100%; Pre-emergence action against Veronica persica (VERPE) (Veronica persica (VERPE) [10]; dosage 320 g/ha): 100%; Pre-emergence action against Digitaria sanguinalis (DIGSA) ([11]; dosage 320 g/ha): 100%; Pre-emergence action against Stellaria media (STEME) (Stellaria media (STEME) [13]; dosage 320 g/ha): 100%; Pre-emergence action against Setaria viridis (SETVI) (Setaria viridis (SETVI); dosage 320 g/ha): 100%; Post-emergence action against Digitaria sanguinalis (DIGSA) ([21]; dosage 320 g/ha): 100%; Post-emergence action against Digitaria sanguinalis (DIGSA) ([21]; dosage 1280 g/ha): 100% |
